Measured values reported in patent US20110295343A1, “NEAR-INFRARED ELECTROMAGNETIC MODIFICATION OF CELLULAR STEADY-STATE MEMBRANE POTENTIALS” (priority 2008, published 2011).
“And” between values parts separate entries of the source, which are not always exact repeats. Equal entries are not always repeated. Where two headings read alike, the source gives them in different places.

Tests used:
[1] = system: C. albicans; assay: Colony counts of C. albicans plated with Lamisil or Sporanox after sub-lethal NIMELS laser (Example XIII); type: cell-based, Candida albicans; settings: for C. albicans Colony Counts, Control: no laser, group AF8, replicates 1-5; for C. albicans Colony Counts, Experimental: sub-lethal NIMELS laser (AF-8 dosimetry), replicates 1-5
Experimental: Similar cell culture and kinetic protocols were performed for all NIMELS irradiation with E. coli and C. albicans in vitro tests. […] A standardized suspension was aliquoted into selected wells in a 24-well tissue culture plate. Following laser treatments, 100 μL was removed from each well and serially diluted to 1:1000 resulting in a final dilution of 1:5×10^6 of initial culture. An aliquot of each final dilution were spread onto separate plates. The plates were then incubated at 37° C. for approximately 16-20 hours. Manual colony counts were performed and recorded.
The null hypothesis is μ1−μ2=0 and μ1−μ3=0 where: a) μ1 is sub-lethal dosimetry ftom the NIMEL laser system on C. albicans as a control and; b) μ2 is the same sub-lethal dosimetry from the NTMEL laser system on C. albicans with the addition of Sporanos at resistant MIC just below effectiveness level and; c) μ3 is the same sub-lethal dosimetry from the NIMEL laser system on C. albicans with the addition of Lamisil at resistant MIC just below effectiveness level.

[2] = system: MRSA; assay: CFU counts of MRSA plated on agar with antibiotic after sub-lethal NIMELS laser (Examples IX-XII); type: cell-based, Staphylococcus aureus; settings: antibiotic at resistant MIC just below effectiveness level
Source text: The following parameters illustrate the general bacterial methods according to the invention as applied to MRSA for the in vitro Experiments V and VIII-XII.
The null hypothesis is μ1−μ2=0 and μ1−μ3=0 where:
a) μ1 is sub-lethal dosimetry from the NIMEL laser system on MRSA as a control and;
The null hypothesis is μ1−μ2=0 and μ1−μ3=0 where: • a) μ1 is sub-lethal dosimetry from the NIMEL laser system on MRSA as a control and; • b)μ2 is the same sub-lethal dosimetry from the NIMEL laser system on MRSA with the addition of tetracycline at resistant MIC just below effectiveness level and; • c) μ3 is the same sub-lethal dosimetry from the NIMEL laser system on MRSA with the addition of rifampin at resistant MIC just below effectiveness level.
The null hypothesis is μ1−μ2=0 and μ1−μ3=0 where: a) μ1 is sub-lethal dosimetry from the NIMEL laser system on MRSA as a control and; b)μ2 is the same sub-lethal dosimetry from the NIMEL laser system on MRSA with the addition of methicillin at resistant MIC just below effectiveness level and; […]

[3] = system: MRSA (ATCC BAA-43); assay: MRSA/antimicrobial potentiation, CFU on TSB agar with and without antibiotic after laser (Example XXII, Experiments 1-4); type: cell-based, Staphylococcus aureus subsp. aureus; settings: for CFU/ml / CFU (single plate count) / AVG (CFU): Drug yes; for CFU (single plate count): agar with 30 μg/ml methicillin, 0.5 μg/ml penicillin G or 4 μg/ml erythromycin, 24 hrs 37° C., plates 1-5; for AVG (CFU): mean of 5 plates; for Drug Effect: CFU with drug relative to without drug; for Laser Effect (+Drug): Exp vs Cont, both with drug
Experimental: Four separate experiments have been performed.
Eight different laser dosages were used to treat a saline-suspension of logarithmically growing MRSA, labeled A1 to H1.
The treated and a control untreated suspension were diluted and plated in triplicate on trypic soy agar with or without 30 μg/ml methicillin After 24 hrs of growth at 37° C. colonies were counted.
CFU (colony forming units) were compared between the plates with and without methicillin for both control (untreated) and treated MRSA.
The treated and a control untreated suspension were diluted and plated in triplicate on trypic soy agar with or without 30 μg/mlmethicillin.
After 24 hrs of growth at 37° C. colonies were counted.
The treated and a control untreated suspension were diluted and plated in pentuplicate on trypic soy agar with or without 30 μg/ml methicillin.

[4] = system: S. aureus; settings: cited from earlier work
[5] = Cont (no laser), groups A4/C4/E4
[6] = Cont (no laser), groups B4/D4/F4
[7] = Exp (laser 870+930 at 5 W 14 min, then 930 at 6 W 9 min), groups B4/D4/F4
[8] = Exp (laser 870+930 at 5.5 W 12 min, then 930 at 8 W 6 min), groups A4/C4/E4

With `CN(C/C=C/C#CC(C)(C)C)Cc1cccc2ccccc12` [Lamisil, terbinafine] the “effect of sub-lethal NIMELS irradiation on antifungal action against C. albicans colonies” value ([1]; 0.5 ug/ml) was “potentiated by a sub-lethal dosimetry irradiation”, the “C. albicans Colony Counts, Control” value ([1]; Lamisil 0.5 ug/ml) was 290 and 335 and 334 and 280 and the “C. albicans Colony Counts, Experimental” value ([1]; Lamisil 0.5 ug/ml) was 101 and 70 and 90 and 78 and 74.
In the case of `CC1(C)S[C@@H]2[C@H](NC(=O)Cc3ccccc3)C(=O)N2[C@H]1C(=O)O` [Penicillin, penicillin G], the “effect of sub-lethal NIMELS irradiation on antibiotic action against MRSA colonies (words)” value [2] is reported as “successful reversal of MRSA resistance”, the CFU/ml [3, 5] is reported as 3.25E+08 CFU/ml and the “CFU (single plate count)” value [3, 5] is reported as 106 CFU and 99 CFU and 102 CFU and 113 CFU and 122 CFU. For the same molecule, the “AVG (CFU)” value [3, 5] was 108.4 CFU, the CFU/ml [3, 6] was 3.98E+08 CFU/ml and the “CFU (single plate count)” value [3, 6] was 101 CFU and 111 CFU and 138 CFU and 132 CFU and 182 CFU. For the same molecule, the “AVG (CFU)” value [3, 6] was 132.8 CFU, the “Drug Effect” value [3, 5] was 0.75 and the “Drug Effect” value [3, 6] was 1.07. For the same molecule, the CFU/ml [3, 7] was 7.14E+07 CFU/ml, the “AVG (CFU)” value [3, 7] was 23.8 CFU and the “Drug Effect” value [3, 7] was 0.31. The CFU/ml [3, 8] was 9.12E+07 CFU/ml, the “AVG (CFU)” value [3, 8] was 30.4 CFU and the “Drug Effect” value [3, 8] was 0.34. For the same molecule, the “Laser Effect (+Drug)” value ([3]; laser 870+930 at 5 W 14 min, then 930 at 6 W 9 min, groups B4/D4/F4) was 0.18, the “Laser Effect (+Drug)” value ([3]; laser 870+930 at 5.5 W 12 min, then 930 at 8 W 6 min, groups A4/C4/E4) was 0.28 and the “synergistic effect of NIMELS with antibiotic in growth inhibition of MRSA colonies” value ([3]; FIG. 17) was “being potentiated by sub-lethal NIMELS dosimetry”.
In the case of `CCC(C)n1ncn(-c2ccc(N3CCN(c4ccc(OCC5COC(Cn6cncn6)(c6ccc(Cl)cc6Cl)O5)cc4)CC3)cc2)c1=O` (stereo not shown) [Sporanox, itraconazole], the “C. albicans Colony Counts, Control” value ([1]; Sporanox 0.5 ug/ml) is reported as 360 and 332 and 320 and 311 and 295 and the “C. albicans Colony Counts, Experimental” value ([1]; Sporanox 0.5 ug/ml) is reported as 110 and 86 and 91 and 80 and 107.
In the case of `CCCCCCCCCC(=O)N[C@@H](Cc1c[nH]c2ccccc12)C(=O)N[C@H](CC(N)=O)C(=O)N[C@@H](CC(=O)O)C(=O)N[C@@H]1C(=O)NCC(=O)N[C@@H](CCCN)C(=O)N[C@@H](CC(=O)O)C(=O)N[C@H](C)C(=O)N[C@@H](CC(=O)O)C(=O)NCC(=O)N[C@H](CO)C(=O)N[C@@H]([C@H](C)CC(=O)O)C(=O)N[C@@H](CC(=O)c2ccccc2N)C(=O)O[C@@H]1C` [daptomycin], the “daptomycin concentration to achieve a 3-log reduction” value ([4]; cell growth halted by erythromycin, within 2 h) is given as 10 μg/ml and the “daptomycin concentration to achieve a 3-log reduction” value ([4]; used alone, stationary phase S. aureus, 10^10 CFU/ml) is given as 32 μg/ml.
